# Experimental data: patent US20240270745A1, “ISOQUINOLINE ALKALOID COMPOUND, AND PREPARATION METHOD THEREFOR AND USE THEREOF” (SHANGHAI INSTITUTE OF MATERIA MEDICA, CHINESE ACADEMY OF …, priority 2021, published 2024)
# pIC50: −log10 of the molar value.
# Experiments:
# [1] = system: hippocampal neurons; assay: Spontaneous firing of cultured hippocampal neurons (patch clamp); assay type: cell-based, SD rats; conditions: 10 μM, FIG. 1 A and B
# Procedure: (§1) Whole-cell patch clamp recording was performed through a digital-to-analog converter, the Digidata 1440A (Axon CNS), and a patch clamp amplifier, the Axon patch 700B (Molecular Devices), and the borosilicate glass electrode used in the manual patch clamp experiment was pulled by a Sutter-P1000 electrode puller (Sutter) with a resistance about 3 MΩ. The bath solution was continuously perfused in speed of about 2 mL/min using a BPS perfusion system.
# Enzyme and termination solutions with the same concentration were prepared with PBS. 90% DMEM/F12 supplemented with 10% FBS, neuron culture medium (2% B-27, 1% penicillin and streptomycin mixture, Neurobasal-A supplemented with 0.5 mM 1% GlutaMAX), and enzyme and termination solutions (all purchased from Gibco) were preheated in advance. The slides were coated in a 24-well plate in advance with 20 μg/mL polylysine. All operations were performed in a biological safety cabinet. 3 newly born SD rats that were 1-3 days old were taken out the hippocampus according to the above method. The hippocampus was cut into pieces with microdissecting scissors and digested for 8 minutes in the enzyme solution, which was slightly shaken every 2-3 minutes to make the digestion even. […] The suspension was counted on a cell counter, and adjusted to a final concentration of 10^5 cells/mL. […]
# [2] = system: dorsal root ganglion (DRG) neurons; assay: Evoked action potential firing in dorsal root ganglion neurons (whole-cell patch clamp); assay type: cell-based, C57BL/6 mouse; conditions: 10 μM; 200 pA, 500 ms current stimulation; FIG. 1 C and D
# Description: (§2) A 4- to 6-week old C57BL/6 mouse (Shanghai Slack Experimental Animal Co., Ltd.) was used for acute isolation of dorsal root ganglion neurons. First, the mouse was sacrificed by breaking the neck, and the surface skin was disinfected with 75% alcohol. The skin was cut from the neck to the buttocks, and the spine from the neck to the waist was cut, and placed in a pre-cooled phosphate buffer (PBS) (Hyclone Company) after excess muscles and blood clots were removed. The spine was cut longitudinally along the midline, and the white spinal cord and blood clots in the middle were removed by ophthalmic tweezers to expose the intervertebral foramen. The dorsal root ganglia were taken out by fine forceps, wherein the large ganglia at the waist should be stripped of their fibrous connections. Then the ganglia were cut into small pieces with microdissection scissors, added to 1 mL of a mixture of collagenase (1 mg/mL) and trypsin (0.25 mg/mL) (Sigma-Aldrich Company) for digestion for 15 min. Then a DMEM/F12 culture medium (Gibco Company) supplemented with 10% fetal calf serum was added thereto to terminate the digestion and dilute the resultant. The cells were pipetted repeatedly, and large tissue blocks were filtered out with a 70 μM cell filter. The remaining liquid was inoculated into a glass slide pre-coated with poly-lysine (Sigma-Aldrich), and cultured in an incubator at 5% CO2 and 37° C. […]
# [3] = system: IK current in DRG neurons; assay: Delayed inward rectifier potassium current (IK) in DRG neurons; assay type: cell-based, C57BL/6 mouse
# Description: as §2, with “min.” for “min. Then a DMEM/F12 culture medium (Gibco Company) supplemented with 10% fetal calf serum was added thereto to terminate the digestion and dilute the resultant. The cells were pipetted repeatedly, and large tissue blocks were filtered out with a 70 μM cell filter. The remaining liquid was inoculated into a glass slide pre-coated with poly-lysine (Sigma-Aldrich), and cultured in an incubator at 5% CO2 and 37° C.”
# (§3) The data were processed through Clampfit 10.2, and imported into an Excel table for statistics, and then sorted and analyzed for their significant differences through GraphPad Prim5 software. […] All electrophysiological experiment data were expressed as mean±standard error (mean±S.E.M.).
# [4] = system: IA current in DRG neurons; assay: Transient outward potassium current (IA) in DRG neurons; assay type: cell-based, C57BL/6 mouse; conditions: whole-cell patch clamp; IA = total minus IK; 3 μM and 10 μM in FIG. 2
# Description: as §2, with “min.” for “min. Then a DMEM/F12 culture medium (Gibco Company) supplemented with 10% fetal calf serum was added thereto to terminate the digestion and dilute the resultant. The cells were pipetted repeatedly, and large tissue blocks were filtered out with a 70 μM cell filter. The remaining liquid was inoculated into a glass slide pre-coated with poly-lysine (Sigma-Aldrich), and cultured in an incubator at 5% CO2 and 37° C.”
# as §3
# [5] = system: IK current of hippocampal neurons; assay: Delayed inward rectifier potassium current (IK) in hippocampal neurons; assay type: cell-based, SD rats; conditions: 1, 3 and 10 μM, FIG. 3
# Procedure: as §1
# The cell were clamped at a holding voltage of −50 mV, hyperpolarized to −110 mV, and then directly depolarized to 40 mV after 600 ms to record the whole cell potassium current (ITotal). To record the delayed […] rectifier potassium current (IK), the cells were first depolarized to −50 mV, maintained for 50 ms, and then depolarized to 40 mV. 10 μM HJ-70 was administered by perfusion to detect drug efficacy, and 5 mM TEA was administered as a positive control. […]
# as §3
# [6] = system: IA current of hippocampal neurons; assay: Transient outward potassium current (IA) in hippocampal neurons; assay type: cell-based, SD rats; conditions: 1, 3 and 10 μM, FIG. 3
# Procedure: as §1
# The cell were clamped at a holding voltage of −50 mV, hyperpolarized to −110 mV, and then directly depolarized to 40 mV after 600 ms to record the whole cell potassium current (ITotal). To record the delayed […] rectifier potassium current (IK), the cells were first depolarized to −50 mV, maintained for 50 ms, and then depolarized to 40 mV. […]
# as §3
# [7] = system: sodium current in hippocampal neurons; assay: Sodium current in hippocampal neurons; assay type: cell-based, SD rats; conditions: 10 μM; membrane potential clamped at −90 mV
# Procedure: as §1
# 9 mg of protease (type XXIII, Sigma) was weighed in advance, 5 mg of bovine serum albumin (BSA, Shanghai Sangon) and 5 mg of trypsin inhibitor (Sigma-Aldrich) were weighed, and 3 mg/mL and 5 mg/mL enzyme and termination solutions were respectively prepared with a dissociation solution, and incubated at 32° C. water bath. 2 SD rats that were 1-7 days old (Shanghai Slack Experimental Animal Co., Ltd.) were decapitated and cut the cortex and skull to take out the complete brain, which was divided into two parts along the midline of the brain, and the hippocampus was located in the temporal lobe of the brain. The temporal lobe cortex was removed to expose the hippocampal gyrus for dissection. Then the hippocampus tissue was slightly moistened with the dissociation solution, and cut into thin slices transversely with a razor blade. […]
# [8] = molecular target: T1, Kv2.1 channel (Homo sapiens, UniProt Q14721); assay: Kv2.1 channel current, transiently expressed in CHO-K1 cells (patch clamp); assay type: cell-based; conditions: 10 μM, FIG. 5 A and B
# T1 construct: expressed in transfected cells; host or cells: CHO-K1 cells (ATCC), transient co-transfection with EGFP plasmid at 9:1
# T1 sequence (Q14721 1-858): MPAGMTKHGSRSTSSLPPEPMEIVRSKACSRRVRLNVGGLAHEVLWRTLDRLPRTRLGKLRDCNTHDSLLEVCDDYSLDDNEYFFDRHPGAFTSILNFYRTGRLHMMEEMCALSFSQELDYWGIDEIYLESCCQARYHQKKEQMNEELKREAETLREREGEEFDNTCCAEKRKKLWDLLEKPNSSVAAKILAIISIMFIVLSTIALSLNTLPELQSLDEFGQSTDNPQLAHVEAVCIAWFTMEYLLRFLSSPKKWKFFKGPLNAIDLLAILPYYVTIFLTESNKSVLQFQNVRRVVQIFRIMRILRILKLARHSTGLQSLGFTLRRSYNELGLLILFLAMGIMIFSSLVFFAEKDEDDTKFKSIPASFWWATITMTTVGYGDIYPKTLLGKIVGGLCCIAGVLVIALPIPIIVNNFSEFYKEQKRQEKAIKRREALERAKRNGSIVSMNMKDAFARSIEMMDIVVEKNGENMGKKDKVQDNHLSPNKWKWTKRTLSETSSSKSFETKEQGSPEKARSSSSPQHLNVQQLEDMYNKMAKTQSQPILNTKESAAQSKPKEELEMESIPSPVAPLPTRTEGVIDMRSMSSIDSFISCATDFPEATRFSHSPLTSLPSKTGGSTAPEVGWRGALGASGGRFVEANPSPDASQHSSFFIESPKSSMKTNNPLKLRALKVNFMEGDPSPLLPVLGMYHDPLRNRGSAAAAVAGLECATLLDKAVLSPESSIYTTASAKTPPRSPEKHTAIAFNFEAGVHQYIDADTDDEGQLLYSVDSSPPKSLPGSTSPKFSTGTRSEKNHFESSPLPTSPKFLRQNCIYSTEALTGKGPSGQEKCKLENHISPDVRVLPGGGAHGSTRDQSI
# Description: (§4) First, TRESK plasmid (a kind gift from Professor Min LI of Johns Hopkins University) and Kv2.1 plasmid (a kind gift from Professor Min LI of Johns Hopkins University) were each co-transfected into CHO-K1 cells (ATCC) with green fluorescent protein EGFP plasmid (a kind gift from Professor Jia LI of SHANGHAI INSTITUTE OF MATERIA MEDICA, CHINESE ACADEMY OF SCIENCES) at a ratio of 9:1, and the cells with green fluorescence were selected under a fluorescence microscope to perform the experiments. The cells were clamped at −70 m V, first hyperpolarized to −130 mV, given a ramp depolarization stimulus to 20 mV, maintained for 100 ms, and then hyperpolarized to 0 mV to record the potassium channel current. 10 μM HJ-70 was administered by perfusion to test the drug efficacy thereof.
# [9] = molecular target: T2, TRESK channel (Homo sapiens, UniProt Q7Z418); assay: TRESK channel current, transiently expressed in CHO-K1 cells (patch clamp); assay type: cell-based
# T2 construct: expressed in transfected cells; host or cells: CHO-K1 cells (ATCC), transient co-transfection with EGFP plasmid at 9:1
# T2 sequence (Q7Z418 1-384): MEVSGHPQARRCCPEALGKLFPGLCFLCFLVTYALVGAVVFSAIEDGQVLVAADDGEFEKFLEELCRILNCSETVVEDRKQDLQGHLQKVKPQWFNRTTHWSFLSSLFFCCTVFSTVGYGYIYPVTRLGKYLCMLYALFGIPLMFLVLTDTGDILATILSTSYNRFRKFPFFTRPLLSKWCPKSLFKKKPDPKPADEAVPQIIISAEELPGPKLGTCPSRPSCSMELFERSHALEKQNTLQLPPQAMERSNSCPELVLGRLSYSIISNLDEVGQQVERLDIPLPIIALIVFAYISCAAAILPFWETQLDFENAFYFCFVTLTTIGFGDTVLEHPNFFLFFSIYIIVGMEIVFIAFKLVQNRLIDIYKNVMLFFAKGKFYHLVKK
# Description: as §4
# [10] = system: formaldehyde-induced inflammatory pain; assay: Formalin-induced mouse inflammatory pain model; assay type: in vivo; conditions: mice, intraperitoneal injection 30 minutes before 1% formaldehyde; 60 minutes observation
# Procedure: A 10% formaldehyde solution was diluted 10 times to prepare a 1% formaldehyde solution. 5% DMSO, 5% Tween-80 and 90% normal saline (a 0.9% NaCl solution) were used to prepare solutions of HJ-70 in 100 mg/kg and 30 mg/kg. Each mouse was administered at a dose of 0.2 mL/10 g at 30 minutes before the experiment, and then 20 μL of 1% formaldehyde solution was injected into the sole of the foot through a microsampling needle to create a formalin model. The number of licking of hind paws, flicking of hind paws, and paw lifting, and the time of paw licking and prolonged paw lifting were recorded within 60 minutes. Paw licking was scored as 3, paw flicking was scored as 2, and paw lifting was scored as 1. The pain behavior score and time were calculated to determine the analgesic activity of HJ-70.
# [11] = molecular target: T3, TRESK (KCNK18) (Homo sapiens, UniProt Q7Z418); conditions: in neurons; read-out: half-effective dose for inhibition of TRESK channels; cited from earlier work
# T3 sequence (Q7Z418 1-384): T2 sequence (Q7Z418 1-384)
# [12] = system: TASK1/TASK3 (KCNK3/KCNK9); conditions: in neurons; read-out: half-effective dose for inhibition of TASK1/TASK3 channels; cited from earlier work
Compound,effect on spontaneous firing of cultured hippocampal neurons [1],effect on evoked action potential firing frequency of DRG [2],"reversibility of IK current inhibition after washout ([3]; DRG neurons, washout, FIG. 2 G)","inhibition of IK current in DRG neurons ([3]; whole-cell patch clamp, 3 μM and 10 μM in FIG. 2)",effect on IA current in DRG neurons [4],inhibition of IK current of hippocampal neurons [5],effect on IA current of hippocampal neurons [6],effect on sodium current in hippocampal neurons [7],inhibition of Kv2.1 channel-mediated currents [8],"inhibition of TRESK channel current ([9]; 10 μM, CHO-K1 cells, FIG. 5 C and D)",inhibitory activity on TRESK (K2P) compared with hydroxy-α-sanshool ([9]; comparison with reported half-effective dose of hydroxy-α-sanshool),"pain behavioral response induced by plantar injection of formalin (licking time, pain score) [10]",pIC50 [11],pIC50 [12]
"O=c1c2ccccc2nc2n1CCc1c-2n(CCCO)c2ccccc12 [HJ-70, N-13-n-propanol rutaecarpine]",significantly inhibit,significantly inhibited,completely eluted,dose-dependently inhibited,no significant effect,reversibly and dose-dependently inhibited,without affecting,no effect,completely inhibited,almost completely inhibited,stronger than that of hydroxy-α-sanshool,dose-dependently alleviate,–,–
C/C=C/C=C/C=C\CC/C=C/C(=O)NCC(C)(C)O [hydroxy-α-sanshool],–,–,–,–,–,–,–,–,–,–,–,–,~4.30,~4.30
